# Data published in US20110139152A1, “ANTIBIOTIC MICROPARTICLES FOR INHALATION” (Chiesi Farmaceutici S.p.A., priority 2009, published 2011).
# Assay: Aerosol performance by laser diffraction (Spraytec with inhalation cell, Monodose inhaler)
# Type: physicochemical
# Conditions: mean
# Protocol: The aerosol performance of the microparticles of the present invention were evaluated by laser diffraction (Spraytec, Malvern Instruments, Worcestershire, UK) equipped with an inhalation cell attachment. Approximate 30 mg (or 15 mg in later tests) of each powder was loaded into size 3 HPMC capsules (Capsugel, Peapack, N.J., USA). Before the aerosolization, a stainless steel pin punched each end of the capsule allowing powders to be released from the capsule by providing two holes with diameter about 1 mm. Each capsule was aerosolized using a Monodose inhaler device (Miat S.p.A., Milan, Italy) at flow rate of 60 and 90 L/min. All measurements were made on four replicates at room temperature (20° C., 50% RH). Each measurement was performed over 4 s.
# The device retention was calculated as a percentage of powder left both in the capsules and in the inhalers to the total load. The fine particle fraction (FPF) was defined as the amount of drug particle smaller than 5.4 μm as a percentage of the powder emitted from inhaler device.
# It should be noted that all powders were tested after removing large agglomerates by gently passing the powders through a 250 μm sieve.
# To further improve both the emitted dose and FPF of the mechano-fused microparticles with lower contents of MgSt, e.g. between 0.5% and 1%, loose agglomeration was applied by vibrating powders between two sieves of 180 and 710 μm.
# Prior to this sieving process, powders were tumbled to encourage formation of loose agglomerates.
# [1] = 90 L/min, loosely agglomerated drug powders (tumbled, vibrated between sieves of 180 and 710 μm) versus unsieved
structure (smiles),measurement,setting,value
"NC[C@H]1O[C@H](O[C@H]2[C@H](O)[C@@H](O[C@H]3O[C@H](CO)[C@@H](O)[C@H](N)[C@H]3O)[C@H](N)C[C@@H]2N)[C@H](N)C[C@@H]1O [TMC-raw, (2S,3R,4S,5S,6R)-4-amino-2-{[(1S,2S,3R,4S,6R)-4,6-diamino-3-{[(2R,3R,5S,6R)-3-amino-6-(aminomethyl)-5-hydroxyoxan-2-yl]oxy}-2-hydroxycyclohexyl]oxy}-6-(hydroxymethyl)oxane-3,5-diol]","<5.4 μm (%) (fine particle fraction, FPF)","90 L/min air flow, Monodose inhaler, percentage of the powder emitted, powders passed through 250 μm sieve",32.58%
same,"<5.4 μm (%) (fine particle fraction, FPF)","90 L/min air flow, Monodose inhaler, percentage of the powder emitted, powders passed through 250 μm sieve, listed as untreated drug powder",around 30%
same,Emitted dose (%),"90 L/min air flow, Monodose inhaler, size 3 HPMC capsules, powders passed through 250 μm sieve",70.77%
same,"<5.4 μm (%) (fine particle fraction, FPF)",[1],32.58%
same,Emitted dose (%),[1],70.77%
